Results from ChEMBL document CHEMBL1126371, “Indazole and indoline as aromatic bioisosteres in the imidazole class of serotonin 5-HT3 receptor antagonists” (Bioorg Med Chem Lett, 1992).
One block for each compound: values may come before it. Active and inactive are the calls of the source. No cut-off for these calls is given here.

How the values were obtained:
Rattus norvegicus [1] = assay: Dose required for inhibition of bradycardia induced by a submaximal dose (iv) of 5-HT in 6 rats; assay type: functional; conditions: read-out: ID50 (the source's name)
Rattus norvegicus [2] = assay: Time required to achieve 50% recovery of Bezold-Jarisch reflex in 5 rats at a dose of 6 ug/kg, iv; assay type: functional
Rattus norvegicus [3] = assay: Dose required for inhibition of bradycardia induced by a submaximal dose (iv) of 5-HT in 4 rats; assay type: functional; conditions: read-out: ID50 (the source's name)
Rattus norvegicus [4] = assay: Percent maximum inhibition against Bezold-Jarisch reflex in 5 rats at a dose of 6 ug/kg, iv; assay type: functional
Rattus norvegicus [5] = assay: Dose required for inhibition of bradycardia induced by a submaximal dose (iv) of 5-HT in 3 rats; assay type: functional; conditions: read-out: ID50 (the source's name)
Rattus norvegicus [6] = assay: Time required to achieve 50% recovery of Bezold-Jarisch reflex in 9 rats at a dose of 6 ug/kg, iv; assay type: functional
Rattus norvegicus [7] = assay: Dose required for inhibition of bradycardia induced by a submaximal dose (iv) of 5-HT in 5 rats; assay type: functional; conditions: read-out: ID50 (the source's name)
Rattus norvegicus [8] = assay: Dose required for inhibition of bradycardia induced by a submaximal dose (iv) of 5-HT in 8 rats; assay type: functional; conditions: read-out: ID50 (the source's name)
Rattus norvegicus [9] = assay: Dose required for inhibition of bradycardia induced by a submaximal dose (iv) of 5-HT in 7 rats; assay type: functional; conditions: read-out: ID50 (the source's name)
[10] = target: T1, 5-hydroxytryptamine receptor 1A (Rattus norvegicus) (UniProt P19327); assay: Tested for the effect on binding at 5-hydroxytryptamine 1A receptor; No activity
T1 sequence (whole entry): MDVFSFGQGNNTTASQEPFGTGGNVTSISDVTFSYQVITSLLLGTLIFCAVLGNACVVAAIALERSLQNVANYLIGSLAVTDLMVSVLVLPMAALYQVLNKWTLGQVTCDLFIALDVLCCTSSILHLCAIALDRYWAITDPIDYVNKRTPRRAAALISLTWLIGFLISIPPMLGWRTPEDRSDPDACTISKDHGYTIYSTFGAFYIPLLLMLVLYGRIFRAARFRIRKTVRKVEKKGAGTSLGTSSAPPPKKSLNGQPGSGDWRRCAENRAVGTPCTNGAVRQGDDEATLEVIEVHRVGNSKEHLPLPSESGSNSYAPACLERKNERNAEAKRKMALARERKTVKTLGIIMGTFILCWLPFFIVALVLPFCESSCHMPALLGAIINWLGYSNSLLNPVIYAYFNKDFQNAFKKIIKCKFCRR

[11] = target: T2, 5-hydroxytryptamine receptor 2C (Rattus norvegicus) (UniProt P08909); assay: Tested for the effect on binding at 5-hydroxytryptamine 1C receptor; No activity
T2 sequence (whole entry): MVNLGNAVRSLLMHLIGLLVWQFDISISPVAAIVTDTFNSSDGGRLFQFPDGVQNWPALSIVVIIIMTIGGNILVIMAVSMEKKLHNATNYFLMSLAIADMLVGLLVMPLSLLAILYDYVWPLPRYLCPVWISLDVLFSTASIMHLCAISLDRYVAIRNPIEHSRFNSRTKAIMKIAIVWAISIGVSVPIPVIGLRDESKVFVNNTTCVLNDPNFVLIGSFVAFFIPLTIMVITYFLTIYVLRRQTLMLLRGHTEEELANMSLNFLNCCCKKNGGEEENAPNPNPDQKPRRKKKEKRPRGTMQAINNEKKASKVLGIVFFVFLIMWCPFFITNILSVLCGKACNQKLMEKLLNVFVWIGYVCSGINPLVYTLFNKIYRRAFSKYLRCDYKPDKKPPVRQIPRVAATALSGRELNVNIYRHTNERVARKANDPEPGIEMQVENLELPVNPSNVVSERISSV

[12] = target: Serotonin 2 (5-HT2) receptor (Rattus norvegicus) (UniProt P30994+P08909+P14842); assay: Tested for the effect on binding at 5-hydroxytryptamine 2 receptor; No activity; assay type: protein assay
Sequence of Serotonin 2 (5-HT2) receptor (Rattus norvegicus) (P14842 whole entry, looked up, one chain of several): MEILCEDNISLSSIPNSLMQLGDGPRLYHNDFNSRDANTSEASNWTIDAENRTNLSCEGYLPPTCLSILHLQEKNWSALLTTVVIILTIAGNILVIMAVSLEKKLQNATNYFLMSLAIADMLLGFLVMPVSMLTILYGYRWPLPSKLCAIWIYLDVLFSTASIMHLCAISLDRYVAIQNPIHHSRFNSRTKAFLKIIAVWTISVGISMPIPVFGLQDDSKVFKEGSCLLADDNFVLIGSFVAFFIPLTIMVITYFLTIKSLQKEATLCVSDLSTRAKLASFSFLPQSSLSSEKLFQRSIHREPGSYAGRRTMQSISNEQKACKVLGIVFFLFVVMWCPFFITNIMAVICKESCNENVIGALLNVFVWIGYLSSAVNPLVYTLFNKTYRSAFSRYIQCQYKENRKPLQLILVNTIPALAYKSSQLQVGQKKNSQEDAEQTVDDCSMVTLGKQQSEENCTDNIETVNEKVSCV
Sequence of Serotonin 2 (5-HT2) receptor (Rattus norvegicus) (P30994 whole entry, looked up, one chain of several): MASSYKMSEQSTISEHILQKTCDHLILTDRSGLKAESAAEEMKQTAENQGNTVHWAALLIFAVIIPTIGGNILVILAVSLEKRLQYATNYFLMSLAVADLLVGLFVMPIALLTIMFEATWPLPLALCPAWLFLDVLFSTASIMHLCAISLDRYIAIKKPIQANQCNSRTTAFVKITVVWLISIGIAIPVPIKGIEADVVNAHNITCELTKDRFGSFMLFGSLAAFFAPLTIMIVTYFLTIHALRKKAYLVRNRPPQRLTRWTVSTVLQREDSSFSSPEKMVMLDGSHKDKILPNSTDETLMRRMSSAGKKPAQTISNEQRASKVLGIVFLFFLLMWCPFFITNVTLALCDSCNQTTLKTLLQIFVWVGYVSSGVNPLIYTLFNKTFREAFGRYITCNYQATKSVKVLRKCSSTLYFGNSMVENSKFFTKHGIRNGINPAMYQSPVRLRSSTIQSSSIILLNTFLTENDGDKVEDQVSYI

[13] = target: 5-hydroxytryptamine receptor 1D (Rattus norvegicus) (UniProt P28565); assay: Tested for the effect on binding at 5-hydroxytryptamine 1D receptor; No activity
Sequence of 5-hydroxytryptamine receptor 1D (Rattus norvegicus) (P28565 whole entry): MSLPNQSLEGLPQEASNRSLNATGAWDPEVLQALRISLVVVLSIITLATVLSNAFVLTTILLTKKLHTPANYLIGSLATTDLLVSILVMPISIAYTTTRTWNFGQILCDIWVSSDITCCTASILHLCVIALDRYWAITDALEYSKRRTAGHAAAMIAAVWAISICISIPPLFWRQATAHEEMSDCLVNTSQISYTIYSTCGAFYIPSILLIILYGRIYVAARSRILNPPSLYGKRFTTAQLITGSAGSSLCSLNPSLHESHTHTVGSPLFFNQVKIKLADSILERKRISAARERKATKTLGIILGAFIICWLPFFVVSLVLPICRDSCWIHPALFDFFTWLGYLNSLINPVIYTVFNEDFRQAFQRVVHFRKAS

[14] = target: Serotonin 3 (5-HT3) receptor; assay: Tested for antagonistic activity on 5-hydroxytryptamine 3 receptor mediated effects of 5-HT in guinea pig isolated ileum; assay type: functional, tissue-based, Cavia porcellus
[15] = target: 5-hydroxytryptamine receptor 4 (Rattus norvegicus) (UniProt Q62758); assay: Tested for the effect on binding at 5-hydroxytryptamine 4 receptor; No activity
Sequence of 5-hydroxytryptamine receptor 4 (Rattus norvegicus) (Q62758 whole entry): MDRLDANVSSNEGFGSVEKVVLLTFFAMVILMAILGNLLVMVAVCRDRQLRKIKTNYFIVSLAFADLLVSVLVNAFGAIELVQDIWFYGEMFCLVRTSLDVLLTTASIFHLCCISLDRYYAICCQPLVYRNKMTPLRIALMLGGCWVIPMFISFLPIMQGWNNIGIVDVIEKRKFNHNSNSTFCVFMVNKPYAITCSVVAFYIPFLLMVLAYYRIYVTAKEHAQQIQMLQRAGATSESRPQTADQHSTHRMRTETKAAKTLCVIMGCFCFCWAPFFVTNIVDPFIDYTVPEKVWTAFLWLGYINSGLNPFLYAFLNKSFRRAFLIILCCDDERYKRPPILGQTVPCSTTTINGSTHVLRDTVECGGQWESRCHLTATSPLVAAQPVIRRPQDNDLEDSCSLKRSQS

Mustela putorius furo [16] = assay: Reduction in the latency period to the first episode in ferret at a dose of 0.01 mg/kg, po; assay type: functional
Mustela putorius furo [17] = assay: Reduction in the latency period to the first episode in ferret at a dose of 0.5 mg/kg, po; assay type: functional
Mustela putorius furo [18] = assay: Reduction in the number of episodes of emesis in 4 ferrets at a dose of 0.5 mg/kg, po; assay type: functional
Mustela putorius furo [19] = assay: Reduction in the number of episodes of emesis in ferrets at a dose of 0.01 mg/kg, po; assay type: functional
Rattus norvegicus [20] = assay: Time required to achieve 50% recovery of Bezold-Jarisch reflex in 4 rats at a dose of 6 ug/kg, iv; assay type: functional
Rattus norvegicus [21] = assay: Percent maximum inhibition against Bezold-Jarisch reflex in 4 rats at a dose of 6 ug/kg, iv, after 5 min; assay type: functional
[22] = target: Alpha-2 adrenergic receptor (Rattus norvegicus); assay: Affinity at Alpha-2 adrenergic receptor in rat brain

Compound: Cc1[nH]cnc1CCC(=O)c1nn(C)c2ccccc12
ED50 (Rattus norvegicus [1]): 3.1 µg/kg

Compound: Cc1nccn1CC1CCc2c(c3ccccc3n2C)C1=O (centres undefined) [ONDANSETRON]
Duration (Rattus norvegicus [2]): 14 min | ED50 (Rattus norvegicus [3]): 3.6 µg/kg | inhibition in vivo at 0.006 mg/kg (Rattus norvegicus [4]): 68%

Compound: CC1(C)CN(C(=O)CCc2c[nH]cn2)c2ccccc21
ED50 (Rattus norvegicus [5]): 4.2 µg/kg

Compound: CN1C2CCCC1CC(NC(=O)c1nn(C)c3ccccc13)C2 (centres undefined) [GRANISETRON]
Duration (Rattus norvegicus [6]): 46 min

Compound: COc1ccccc1NC(=O)CCc1[nH]cnc1C
ED50 (Rattus norvegicus [7]): 20 µg/kg

Compound: CN1C2CCC1CC(NC(=O)N1CC(C)(C)c3ccccc31)C2 (centres undefined)
ED50 (Rattus norvegicus [8]): 0.67 µg/kg

Compound: COc1ccccc1NC(=O)NC1CC2CCC(C1)N2C (centres undefined)
ED50 (Rattus norvegicus [9]): 2.5 µg/kg

Activity [10]: inactive | Activity [11]: inactive | Activity [12]: inactive | Activity [13]: inactive | pA2 [14]: 8.1 | Activity [15]: inactive | Log Ki [22]: -6.2
Compound: Cc1[nH]cnc1CCC(=O)N1CC(C)(C)c2ccccc21
Latency time (Mustela putorius furo [16]): 22.5 min | Latency time (Mustela putorius furo [17]): 90.5 min | Reduction (Mustela putorius furo [18]): 1.3 | Reduction (Mustela putorius furo [19]): 7.7 | Duration (Rattus norvegicus [20]): 66 min | ED50 (Rattus norvegicus [3]): 2.2 µg/kg | inhibition in vivo at 0.006 mg/kg (Rattus norvegicus [21]): 91%

Compound: COc1ccccc1NC(=O)CCc1c[nH]cn1
ED50 (Rattus norvegicus [7]): 35 µg/kg
